Test results published in the Kinase Knowledgebase extract (Sharma et al. 2016).

Legend:
MAPK14 (human) [1] = biological target: MAPK14 (human) (UniProt Q16539); experiment: Inhibition of p38 Kinase Activity
MAPK14 (human) [2] = biological target: MAPK14 (human) (UniProt Q16539); experiment: Inhibition of IL-1 Production in LPS Stimulated PBMC
MAPK14 (human) [3] = biological target: MAPK14 (human) (UniProt Q16539); experiment: Inhibition of TNF-alpha Production in LPS Stimulated PBMC
MAPK14 (human) [4] = biological target: MAPK14 (human) (UniProt Q16539); experiment: Inhibition of TNF-alpha Production in LPS Stimulated Whole Blood Cells
MAPK14 (human) [5] = biological target: MAPK14 (human) (UniProt Q16539); experiment: Inhibition of IL-1 Production in LPS Whole Blood Cells
MAPK14 (human) [6] = biological target: MAPK14 (human) (UniProt Q16539); experiment: Inhibition of IL-6 Production in Whole Blood Cells

Sequence of MAPK14 (human) (Q16539 whole entry, looked up): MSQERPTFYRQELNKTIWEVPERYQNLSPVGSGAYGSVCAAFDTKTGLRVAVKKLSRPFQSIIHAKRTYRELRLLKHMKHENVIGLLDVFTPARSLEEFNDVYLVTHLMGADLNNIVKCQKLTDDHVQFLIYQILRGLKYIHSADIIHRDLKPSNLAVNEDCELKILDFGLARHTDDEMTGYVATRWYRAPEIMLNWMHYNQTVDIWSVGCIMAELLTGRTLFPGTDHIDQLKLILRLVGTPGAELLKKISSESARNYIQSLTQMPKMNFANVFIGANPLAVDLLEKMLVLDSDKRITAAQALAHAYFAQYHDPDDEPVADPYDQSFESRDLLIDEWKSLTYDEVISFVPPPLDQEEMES

SMILES | IC50 (MAPK14 (human) [1]) | IC50 (MAPK14 (human) [2]) | IC50 (MAPK14 (human) [3]) | IC50 (MAPK14 (human) [4]) | IC50 (MAPK14 (human) [5]) | IC50 (MAPK14 (human) [6])
Cc1ccccc1-c1nc(N(C(N)=O)c2c(Cl)cccc2Cl)ccc1CO | 56 nM | 21 nM | 140 nM | 64 nM | 420 nM | 250 nM
Cc1cc(F)ccc1-c1nc(N(C(N)=O)c2c(F)cccc2F)ccc1CO | 27 nM | 27 nM | 10 nM | 90 nM | 57 nM | 75 nM
Cc1cc(F)ccc1-c1nc(N(C(N)=O)c2c(Cl)cccc2Cl)ccc1CO | 2 nM | 20 nM | 50 nM | 55 nM | 118 nM | 180 nM
